Experimental data as given in patent US10738056B2 (Aduro BioTech, Inc., priority 2017, dated 2020).

Tests used:
[1] = test system: cGAS/STING pathway in THP1 cells; experiment: THP1 cell-based cGAS/STING pathway activity assay (IRF-3-linked luciferase reporter); conditions: Homo sapiens, THP-1
In short: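 THP1 cells carrying an IRF-3-driven luciferase reporter were read across a range of compound concentrations, and IC50 values were derived from these concentration responses; the assay upper limit was 100 μM.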

[2] = biological target: Human cGAS amino acids 155-522 (Homo sapiens (Human), UniProt Q8N884); experiment: cGAS biochemical activity assay (ATP remaining, Kinase-Glo Max luminescence); conditions: human cGAS 155-522, ATP remaining (Kinase-Glo Max); read-out: cGAS IC50
Chain of Human cGAS amino acids 155-522 (Q8N884 157-522): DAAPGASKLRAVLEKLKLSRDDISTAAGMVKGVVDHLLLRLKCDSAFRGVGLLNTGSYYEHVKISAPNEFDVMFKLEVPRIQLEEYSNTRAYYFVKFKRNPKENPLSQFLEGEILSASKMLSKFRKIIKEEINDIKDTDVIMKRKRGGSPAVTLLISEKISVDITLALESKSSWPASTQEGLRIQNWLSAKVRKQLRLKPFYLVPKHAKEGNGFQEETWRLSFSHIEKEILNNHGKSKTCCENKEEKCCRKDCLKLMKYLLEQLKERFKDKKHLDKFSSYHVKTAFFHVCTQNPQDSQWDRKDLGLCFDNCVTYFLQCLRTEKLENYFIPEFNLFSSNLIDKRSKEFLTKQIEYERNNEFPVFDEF

Row | IC50 [1] [µM] | IC50 [2] [µM] | SMILES
1 | > 100 | < 20 | Cc1[nH]c2c(-c3ccccc3)c(C(F)(F)F)nn2c(=O)c1-c1nnc(C2COCCN2S(C)(=O)=O)o1 (stereo not drawn) [Compound D1047, 5-methyl-6-(5-(4-(methylsulfonyl)morpholin-3-yl)-1,3,4-oxadiazol-2-yl)-3-phenyl-2-(trifluoromethyl)pyrazolo[1,5-a]pyrimidin-7(4H)-one]
2 | < 20 | > 250 | COc1cccc2oc(-c3c[nH]c4c(-c5ccccc5)c(C(F)(F)F)nn4c3=O)nc12 [Compound C1079, 6-(4-methoxybenzo[d]oxazol-2-yl)-3-phenyl-2-(trifluoromethyl)pyrazolo[1,5-a]pyrimidin-7(4H)-one]
3 | > 100 | < 20 | CSc1cccc2oc(-c3c(C)[nH]c4c(-c5ccccc5)c(C#N)nn4c3=O)nc12 [Compound C1204, 5-methyl-6-(4-(methylthio)benzo[d]oxazol-2-yl)-7-oxo-3-phenyl-4,7-dihydropyrazolo[1,5-a]pyrimidine-2-carbonitrile]
4 | 20 to 100 | < 20 | COc1cccc2oc(-c3c(-c4conc4C)[nH]c4c(-c5ccccc5)c(C(F)(F)F)nn4c3=O)nc12 [Compound C1253, 6-(4-methoxybenzo[d]oxazol-2-yl)-5-(3-methylisoxazol-4-yl)-3-phenyl-2-(trifluoromethyl)pyrazolo[1,5-a]pyrimidin-7(4H)-one]
5 | < 20 | 20 to 250 | Cc1[nH]c2c(-c3ccccc3)c(C(F)(F)F)nn2c(=O)c1-c1nc2ccccc2n1-c1ccccc1 [Compound C1229, 5-methyl-3-phenyl-6-(1-phenyl-1H-benzo[d]imidazol-2-yl)-2-(trifluoromethyl)pyrazolo[1,5-a]pyrimidin-7(4H)-one]
6 | > 100 | < 20 | COc1cccc2oc(-c3c(C4CC(C(=O)O)C4)[nH]c4c(-c5ccccc5)c(C(F)(F)F)nn4c3=O)nc12 (stereo not drawn) [Compound C1252, 3-(6-(4-methoxybenzo[d]oxazol-2-yl)-7-oxo-3-phenyl-2-(trifluoromethyl)-4,7-dihydropyrazolo[1,5-a]pyrimidin-5-yl)cyclobutane-1-carboxylic acid]
7 | < 20 | < 20 | Cc1[nH]c2c(-c3ccccc3)c(C(F)(F)F)nn2c(=O)c1C(=O)Nc1cccc(OC(C)C)c1 [Compound A1066, N-(3-isopropoxyphenyl)-5-methyl-7-oxo-3-phenyl-2-(trifluoromethyl)-4,7-dihydropyrazolo[1,5-a]pyrimidine-6-carboxamide]
8 | < 20 | < 20 | COc1cccc2sc(-c3c(C)[nH]c4c(-c5ccccc5)c(C(F)(F)F)nn4c3=O)nc12 [Compound C1070, 6-(4-methoxybenzo[d]thiazol-2-yl)-5-methyl-3-phenyl-2-(trifluoromethyl)pyrazolo[1,5-a]pyrimidin-7(4H)-one]
9 | > 100 | < 20 | COCc1[nH]c2c(-c3ccccc3)c(C#N)nn2c(=O)c1-c1nc2c(OC)nccc2o1 [Compound C1246, 5-(methoxymethyl)-6-(4-methoxyoxazolo[4,5-c]pyridin-2-yl)-7-oxo-3-phenyl-4,7-dihydropyrazolo[1,5-a]pyrimidine-2-carbonitrile]
10 | > 100 | < 20 | COc1cccc2c(=O)[nH]c(-c3c(C)[nH]c4c(-c5ccccc5)c(C(F)(F)F)nn4c3=O)nc12 [Compound C1025, 8-methoxy-2-(5-methyl-7-oxo-3-phenyl-2-(trifluoromethyl)-4,7-dihydropyrazolo[1,5-a]pyrimidin-6-yl)quinazolin-4(3H)-one]
11 | 20 to 100 | > 250 | Cc1[nH]c2c(C(C)C)c(C(F)(F)F)nn2c(=O)c1-c1ccccc1 [Compound C1269, 3-isopropyl-5-methyl-6-phenyl-2-(trifluoromethyl)pyrazolo[1,5-a]pyrimidin-7(4H)-one]
12 | 20 to 100 | 20 to 250 | Cc1[nH]c2c(-c3ccccc3)c(C(F)(F)F)nn2c(=O)c1C(=O)NCc1ccccc1 [Compound A1023, N-benzyl-5-methyl-7-oxo-3-phenyl-2-(trifluoromethyl)-4,7-dihydropyrazolo[1,5-a]pyrimidine-6-carboxamide]
13 | 20 to 100 | < 20 | COc1cc(CO)cc2oc(-c3c(C)[nH]c4c(-c5ccccc5)c(C(F)(F)F)nn4c3=O)nc12 [Compound C1166, 6-(6-(hydroxymethyl)-4-methoxybenzo[d]oxazol-2-yl)-5-methyl-3-phenyl-2-(trifluoromethyl)pyrazolo[1,5-a]pyrimidin-7(4H)-one]
14 | < 20 | > 250 | Cc1[nH]c2c(-c3ccccc3)c(C(F)(F)F)nn2c(=O)c1-c1nc2c(o1)CCCC2 [Compound C1015, 5-methyl-3-phenyl-6-(4,5,6,7-tetrahydrobenzo[d]oxazol-2-yl)-2-(trifluoromethyl)pyrazolo[1,5-a]pyrimidin-7(4H)-one]
15 | 20 to 100 | 20 to 250 | Cc1[nH]c2c(-c3ccccc3)c(C(F)(F)F)nn2c(=O)c1C(=O)Nc1nc(C(C)C)co1 [Compound A1048, N-(4-isopropyloxazol-2-yl)-5-methyl-7-oxo-3-phenyl-2-(trifluoromethyl)-4,7-dihydropyrazolo[1,5-a]pyrimidine-6-carboxamide]
16 | > 100 | < 20 | COc1cc(CN)cc2oc(-c3c(C)[nH]c4c(-c5ccccc5)c(C(F)(F)F)nn4c3=O)nc12 [Compound C1135, 6-(6-(aminomethyl)-4-methoxybenzo[d]oxazol-2-yl)-5-methyl-3-phenyl-2-(trifluoromethyl)pyrazolo[1,5-a]pyrimidin-7(4H)-one]
17 | > 100 | < 20 | COc1cccc2oc(-c3c(N)[nH]c4c(-c5ccccc5)c(C(F)(F)F)nn4c3=O)nc12 [Compound C1085, 5-amino-6-(4-methoxybenzo[d]oxazol-2-yl)-3-phenyl-2-(trifluoromethyl)pyrazolo[1,5-a]pyrimidin-7(4H)-one]
18 | > 100 | < 20 | Cc1[nH]c2c(-c3ccccc3)c(C(F)(F)F)nn2c(=O)c1-c1nc(CO)co1 [Compound C1104, 6-(4-(hydroxymethyl)oxazol-2-yl)-5-methyl-3-phenyl-2-(trifluoromethyl)pyrazolo[1,5-a]pyrimidin-7(4H)-one]
19 | > 100 | < 20 | COc1nc(N)cc2oc(-c3c(C)[nH]c4c(-c5ccccc5)c(C#N)nn4c3=O)nc12 [Compound C1218, 6-(6-amino-4-methoxyoxazolo[4,5-c]pyridin-2-yl)-5-methyl-7-oxo-3-phenyl-4,7-dihydropyrazolo[1,5-a]pyrimidine-2-carbonitrile]
20 | < 20 | < 20 | CCc1cccc2oc(-c3c(C)[nH]c4c(-c5ccccc5)c(C#N)nn4c3=O)nc12 [Compound C1188, 6-(4-ethylbenzo[d]oxazol-2-yl)-5-methyl-7-oxo-3-phenyl-4,7-dihydropyrazolo[1,5-a]pyrimidine-2-carbonitrile]
21 | > 100 | < 20 | Cc1[nH]c2c(-c3ccccc3)c(C(F)(F)F)nn2c(=O)c1-c1nnc(-c2ccnc(O)c2)o1 [Compound D1085, 6-(5-(2-hydroxypyridin-4-yl)-1,3,4-oxadiazol-2-yl)-5-methyl-3-phenyl-2-(trifluoromethyl)pyrazolo[1,5-a]pyrimidin-7(4H)-one]
